What was measured:
ErbB2 mutant L755S = ErbB2 mutant L755S (Homo sapiens (Human), UniProt P04626, L755S); experiment: ErbB cellular phosphorylation assay (phospho-ErbB2 ELISA), HEK-293 cells expressing ErbB2 L755S; type: cell-based; settings: 1 h treatment
Description: Cells were seeded in poly-D-lysine coated, 96-well plates at a density of 50,000 cells/well in complete medium (DMEM supplemented with 10% fetal bovine serum and G418) and incubated for 24 h at 37° C., 5% CO2 prior to treatment. Cells were treated with compound using three-fold dilutions at final concentrations ranging from […] for 1 h at 37° C., 5% CO2. EGFR-WT cells were stimulated with 500 ng/mL recombinant human EGF (R&D Systems, 236-EG) for an additional 5 min. After compound incubation, medium was removed from the plate, and cells were lysed in buffer containing protease and phosphatase inhibitors ([…]). Cell lysates were analyzed by enzyme-linked immunosorbent assay (ELISA). The ELISAs were performed to measure phosphorylated ErbB2 or phosphorylated EGFR levels, respectively (R&D Systems, DYC-1768, Human Phospho-ErbB2 DuoSet ELISA; DYC1095, Human Phospho-EGFR DuoSet IC ELISA) according to the manufacturer's instructions. Absorbance was measured at 450 nm using a BioTek Cytation 5 plate reader (Agilent, Santa Clara, CA) and IC50 values were calculated using a 4-parameter fit.

EGFR WT = EGFR WT (Homo sapiens (Human), UniProt P00533); experiment: ErbB enzyme assay (CisBio HTRF-KinEASE-TK), EGFR WT; type: biochemical; settings: ATP at Km (25 μM), 1 h incubation
Procedure, shortened: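 HTRF KinEASE-TK kinase reactions ran 1 h at ambient temperature with three-fold serial compound dilutions, then were quenched with Sa-XL665 and TK-Ab-Cryptate. After 1 h more, 655/620 nm time-resolved fluorescence gave percent of control; a 4-parameter logistic fit defined IC50 at 50 POC.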

EGFR wild type = EGFR wild type (Homo sapiens (Human), UniProt P00533); experiment: ErbB cellular phosphorylation assay (phospho-EGFR ELISA), HEK-293 cells expressing EGFR wild type, EGF stimulated; type: cell-based; settings: 1 h treatment
Description: HEK-293 cells were engineered to constitutively express ErbB2 mutant L755S or EGFR wild type (constructs obtained from GenScript, Piscataway, NJ). Cells were seeded in poly-D-lysine coated, 96-well plates at a density of 50,000 cells/well in complete medium (DMEM supplemented with 10% fetal bovine serum and G418) and incubated for 24 h at 37° C., 5% CO2 prior to treatment. Cells were treated with compound using three-fold dilutions at final concentrations ranging from […] for 1 h at 37° C., 5% CO2. EGFR-WT cells were stimulated with 500 ng/mL recombinant human EGF (R&D Systems, 236-EG) for an additional 5 min. After compound incubation, medium was removed from the plate, and cells were lysed in buffer containing protease and phosphatase inhibitors ([…]). Cell lysates were analyzed by enzyme-linked immunosorbent assay (ELISA). The ELISAs were performed to measure phosphorylated ErbB2 or phosphorylated EGFR levels, respectively (R&D Systems, DYC-1768, Human Phospho-ErbB2 DuoSet ELISA; DYC1095, Human Phospho-EGFR DuoSet IC ELISA) according to the manufacturer's instructions. Absorbance was measured at 450 nm using a BioTek Cytation 5 plate reader (Agilent, Santa Clara, CA) and IC50 values were calculated using a 4-parameter fit.

ErbB2 V777L = ErbB2 V777L (Homo sapiens (Human), UniProt P04626, V777L); experiment: ErbB enzyme assay (CisBio HTRF-KinEASE-TK), ErbB2 V777L; type: biochemical
Procedure, shortened: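 HTRF KinEASE-TK tyrosine-kinase read-out of substrate phosphorylation after a final 1 h at ambient temperature, from the 655/620 nm emission ratio.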

[1] = Blood brain barrier penetration assay in CD-1 mice (short oral absorption model, Kpuu brain); type: in vivo; settings: mouse, brain and plasma, male CD-1 mice, 1 h post-dose, Kpuu brain = conc (brain)/conc (plasma) x (fu brain/fu plasma)
Description: In vitro plasma and brain binding assays were carried out using the equilibrium dialysis method. EDTA-anticoagulated plasma and diluted brain homogenate (1:3 with DPBS pH 7.4) were spiked with 2 μM test compound and dialyzed against an equal volume of 100 μL 100 mM sodium phosphate buffer (pH 7.4) at 37° C. for 4 h in a slowly rotated plate. At the end of the dialysis 50 μL aliquots from the buffer side and matrix side of the dialysis device were taken into new 96-well plates. An equal volume of opposite blank matrix (buffer or matrix) in each sample was added to reach a final volume of 100 μL. All samples were processed by protein precipitation for LC/MS/MS analysis. Unbound fraction (fu) of test compound was calculated by the ratio of buffer side response to the brain homogenate/plasma side response, and unbound fraction (fu,pl and fu,br) of test compound in non-diluted plasma and brain tissue were calculated from measured fu in homogenate and plasma with the following equation: fu,pl or fu,br=1/D/((1/(F/T)-1)+1/D). F is the free compound concentration as determined by the calculated concentration on the buffer side of the membrane and T is the total compound concentration as determined by the calculated concentration on the matrix side of the membrane. D is the dilution factor (D equals 1 for plasma, and 4 for brain).
A short oral absorption model is an in-vivo screening model to identify brain penetration of a compound. Three male CD-1 mice were orally dosed with an appropriate vehicle. At the 1 h timepoint post-dose, blood samples were collected via cardiac puncture, placed into EDTA anti-coagulated tubes, and spiked with 1% 1 mM quinidine (aq). The samples were placed on wet ice until centrifugation at 4000×g for 10 min. Brain tissue was rinsed with saline and the liquid was drained. The brains were weighed and transferred to tubes for homogenization. Each tube contained 1 g tissue, 9 mL buffer (1:2 v/v MeOH:15 mM PBS), and a spike of 1% 1 mM quinidine (aq). All samples were stored at −80° C. prior to LC/MS/MS analysis. Standards were prepared by spiking blank plasma and brain homogenate. Aliquots (10 μL) of sample, calibration standard, quality control, dilution quality control, single blank, and double blank were added to the 96-well plate respectively. Homogenized brain tissue along with plasma samples were precipitated by adding 190 μL cold MeCN containing internal standard (the double blank sample was quenched with 190 L MeCN). The mixture was vortex-mixed for 5 min at 1000 rpm and centrifuged for 10 min at 3220×g, 4° C. […] The free fraction of test compound in biological matrix was determined by using in vitro plasma and brain tissue free fraction. Kpuu brain was calculated by the equation: Kpuu brain=cone (brain)/conc (plasma)×(fu brain/fu plasma).

Sequence of ErbB2 mutant L755S (P04626 23-1255 L755S): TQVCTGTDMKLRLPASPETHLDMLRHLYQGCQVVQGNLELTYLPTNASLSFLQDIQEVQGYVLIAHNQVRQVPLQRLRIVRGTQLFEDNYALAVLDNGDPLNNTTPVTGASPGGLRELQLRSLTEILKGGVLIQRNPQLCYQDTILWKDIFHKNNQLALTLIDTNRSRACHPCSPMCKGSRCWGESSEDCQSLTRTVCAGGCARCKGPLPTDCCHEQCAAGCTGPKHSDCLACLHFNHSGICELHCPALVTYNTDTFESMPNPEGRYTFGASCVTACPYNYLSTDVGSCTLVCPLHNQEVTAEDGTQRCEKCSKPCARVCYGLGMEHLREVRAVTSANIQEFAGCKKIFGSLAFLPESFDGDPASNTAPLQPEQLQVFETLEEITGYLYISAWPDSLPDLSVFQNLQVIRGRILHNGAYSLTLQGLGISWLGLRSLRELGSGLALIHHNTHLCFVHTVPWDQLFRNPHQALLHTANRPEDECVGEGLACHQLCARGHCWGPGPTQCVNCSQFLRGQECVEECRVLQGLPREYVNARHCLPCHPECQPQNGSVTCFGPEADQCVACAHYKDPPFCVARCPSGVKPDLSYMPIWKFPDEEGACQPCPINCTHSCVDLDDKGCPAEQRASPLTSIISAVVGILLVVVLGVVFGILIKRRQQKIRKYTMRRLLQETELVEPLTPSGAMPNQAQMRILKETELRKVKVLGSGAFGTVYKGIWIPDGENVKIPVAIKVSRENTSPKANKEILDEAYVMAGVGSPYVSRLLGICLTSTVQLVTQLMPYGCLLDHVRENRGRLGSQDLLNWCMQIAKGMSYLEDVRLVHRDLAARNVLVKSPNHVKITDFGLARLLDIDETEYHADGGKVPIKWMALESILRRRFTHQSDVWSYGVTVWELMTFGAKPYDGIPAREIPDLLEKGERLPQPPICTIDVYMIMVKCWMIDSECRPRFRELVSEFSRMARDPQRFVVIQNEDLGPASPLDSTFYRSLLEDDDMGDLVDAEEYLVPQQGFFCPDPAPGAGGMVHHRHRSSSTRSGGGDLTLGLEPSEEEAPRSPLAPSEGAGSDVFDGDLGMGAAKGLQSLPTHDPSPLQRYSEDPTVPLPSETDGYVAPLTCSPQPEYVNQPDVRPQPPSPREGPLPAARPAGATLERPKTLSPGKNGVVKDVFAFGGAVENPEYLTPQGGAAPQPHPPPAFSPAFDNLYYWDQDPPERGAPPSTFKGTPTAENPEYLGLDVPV
Sequence of EGFR WT (P00533 25-1210): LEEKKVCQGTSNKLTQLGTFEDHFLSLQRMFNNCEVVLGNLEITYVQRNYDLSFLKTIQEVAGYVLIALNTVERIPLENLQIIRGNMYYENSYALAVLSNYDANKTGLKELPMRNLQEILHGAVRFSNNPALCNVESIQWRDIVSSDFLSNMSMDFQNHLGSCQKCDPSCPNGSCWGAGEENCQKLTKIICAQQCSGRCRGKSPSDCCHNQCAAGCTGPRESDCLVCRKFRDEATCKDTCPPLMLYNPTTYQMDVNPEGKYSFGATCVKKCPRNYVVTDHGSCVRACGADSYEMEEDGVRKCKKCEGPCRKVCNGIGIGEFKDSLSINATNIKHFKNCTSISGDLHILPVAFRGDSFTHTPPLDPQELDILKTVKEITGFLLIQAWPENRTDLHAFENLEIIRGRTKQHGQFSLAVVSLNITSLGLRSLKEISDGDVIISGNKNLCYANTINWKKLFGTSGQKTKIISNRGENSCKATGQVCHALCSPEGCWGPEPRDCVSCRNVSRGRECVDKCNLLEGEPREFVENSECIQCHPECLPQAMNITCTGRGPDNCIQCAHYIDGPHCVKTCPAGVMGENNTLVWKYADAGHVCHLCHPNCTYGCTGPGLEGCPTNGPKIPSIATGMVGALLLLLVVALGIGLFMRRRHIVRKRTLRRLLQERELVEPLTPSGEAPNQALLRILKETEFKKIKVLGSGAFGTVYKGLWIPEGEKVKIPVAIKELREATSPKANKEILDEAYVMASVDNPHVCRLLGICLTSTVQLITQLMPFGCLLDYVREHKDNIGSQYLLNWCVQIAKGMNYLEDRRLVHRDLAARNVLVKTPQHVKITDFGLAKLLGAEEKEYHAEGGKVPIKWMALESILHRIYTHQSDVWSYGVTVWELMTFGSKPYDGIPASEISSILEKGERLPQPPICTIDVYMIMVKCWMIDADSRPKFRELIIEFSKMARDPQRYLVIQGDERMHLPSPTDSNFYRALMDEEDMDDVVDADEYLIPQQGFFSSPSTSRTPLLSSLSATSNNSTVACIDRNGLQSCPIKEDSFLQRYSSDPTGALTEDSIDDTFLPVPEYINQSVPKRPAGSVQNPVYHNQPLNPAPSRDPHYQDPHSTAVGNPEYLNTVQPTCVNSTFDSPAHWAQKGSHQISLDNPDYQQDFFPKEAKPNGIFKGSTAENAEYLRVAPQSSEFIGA
Sequence of EGFR wild type (P00533 25-1210): as above
Sequence of ErbB2 V777L (P04626 23-1255 V777L): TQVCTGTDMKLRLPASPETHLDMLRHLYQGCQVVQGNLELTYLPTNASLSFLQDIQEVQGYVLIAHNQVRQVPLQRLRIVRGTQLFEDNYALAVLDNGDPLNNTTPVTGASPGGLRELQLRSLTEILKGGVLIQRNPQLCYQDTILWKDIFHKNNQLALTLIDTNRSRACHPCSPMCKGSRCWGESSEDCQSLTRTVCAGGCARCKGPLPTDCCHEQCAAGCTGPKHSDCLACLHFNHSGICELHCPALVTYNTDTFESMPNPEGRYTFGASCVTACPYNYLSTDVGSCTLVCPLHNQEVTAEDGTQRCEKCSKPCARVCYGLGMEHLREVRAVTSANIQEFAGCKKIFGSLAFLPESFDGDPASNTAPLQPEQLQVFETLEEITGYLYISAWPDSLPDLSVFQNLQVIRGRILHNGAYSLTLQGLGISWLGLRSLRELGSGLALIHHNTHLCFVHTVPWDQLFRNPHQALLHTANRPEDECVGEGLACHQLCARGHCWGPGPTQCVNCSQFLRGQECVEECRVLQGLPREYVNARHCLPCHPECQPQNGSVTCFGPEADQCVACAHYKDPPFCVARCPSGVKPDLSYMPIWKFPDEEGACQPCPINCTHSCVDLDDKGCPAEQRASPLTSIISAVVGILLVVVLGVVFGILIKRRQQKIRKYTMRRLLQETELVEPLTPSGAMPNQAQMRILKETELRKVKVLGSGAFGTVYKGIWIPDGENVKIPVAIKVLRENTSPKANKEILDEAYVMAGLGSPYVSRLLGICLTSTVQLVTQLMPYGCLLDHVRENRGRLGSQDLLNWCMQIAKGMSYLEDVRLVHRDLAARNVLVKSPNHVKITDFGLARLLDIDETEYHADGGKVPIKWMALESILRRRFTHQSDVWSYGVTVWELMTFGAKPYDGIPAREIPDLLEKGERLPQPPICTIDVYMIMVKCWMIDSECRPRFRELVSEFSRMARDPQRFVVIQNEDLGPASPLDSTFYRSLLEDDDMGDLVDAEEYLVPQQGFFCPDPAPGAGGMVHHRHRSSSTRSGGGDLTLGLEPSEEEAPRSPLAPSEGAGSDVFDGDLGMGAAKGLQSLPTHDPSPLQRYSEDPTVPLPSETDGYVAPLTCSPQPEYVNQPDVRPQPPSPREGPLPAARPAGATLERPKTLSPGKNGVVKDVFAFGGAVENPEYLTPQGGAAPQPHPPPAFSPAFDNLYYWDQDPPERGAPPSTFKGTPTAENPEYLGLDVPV

| IC50 (ErbB2 mutant L755S) [nM] | IC50 (EGFR WT) [nM] | IC50 (EGFR wild type) [nM] | IC50 (ErbB2 V777L) [nM] | Kp uu at 1 h [1] | Compound |
| --- | --- | --- | --- | --- | --- |
| 100 to 500 | 500 to 1000 | ≥ 5000 | 100 to 500 |  | C=CC(=O)N1CCN(c2ncc3ncnc(Nc4cc(C)c(Oc5ccc6c(c5)ncn6C(F)F)cc4OC)c3n2)C[C@H]1C [Compound 39, (R)-1-(4-(8-((4-((1-(difluoromethyl)-1H-benzo[d]imidazol-5-yl)oxy)-2-methoxy-5-methylphenyl)amino)pyrimido[5,4-d]pyrimidin-2-y1)-2-methylpiperazin-1-yl)prop-2-en-1-one] |
|  | 100 to 500 |  |  | 0.22 | C=CC(=O)N1CCN(c2ncc3ncnc(Nc4ccc(Oc5ccc6c(c5)nnn6C)c(C)c4)c3n2)CC1 [Compound 5, 1-(4-(8-((3-methyl-4-((1-methyl-1H-benzo[d][1,2,3]triazol-5-yl)oxy)phenyl)amino)pyrimido[5,4-d]pyrimidin-2-yl)piperazin-1-yl)prop-2-en-1-one] |
| 100 to 500 |  | ≥ 5000 | 50 to 100 |  | C=CC(=O)N1CCC(Sc2ncc3ncnc(Nc4ccc(Oc5ccc6c(c5)ncn6C)c(C)c4F)c3n2)CC1 [Compound 107, 1-(4-((8-((2-fluoro-3-methyl-4-((1-methyl-1H-benzo[d]imidazol-5-yl)oxy)phenyl)amino)pyrimido[5,4-d]pyrimidin-2-yl)thio)piperidin-1-yl)prop-2-en-1-one] |
| 100 to 500 | 500 to 1000 | ≥ 5000 | 100 to 500 |  | CC#CC(=O)N1CCN(c2ncc3ncnc(Nc4ccc(Oc5ccc6c(c5)nnn6C)c(C)c4)c3n2)CC1 [Compound 55, 1-(4-(8-((3-methyl-4-((1-methyl-1H-benzo[d][1,2,3]triazol-5-yl)oxy)phenyl)amino)pyrimido [5,4-d]pyrimidin-2-yl)piperazin-1-yl) but-2-yn-1-one] |
| 100 to 500 | 100 to 500 | ≥ 5000 | 50 to 100 |  | C=CC(=O)N1CCN(c2ncc3ncnc(Nc4ccc(Oc5ccc6c(c5)nnn6C)c(C)c4)c3n2)CC1(C)C [Compound 3, 1-(2,2-dimethyl-4-(8-((3-methyl-4-((1-methyl-1H-benzo[d][1,2,3]triazol-5-yl)oxy)phenyl)amino)pyrimido[5,4-d]pyrimidin-2-yl)piperazin-1-yl)prop-2-en-1-one] |
| 100 to 500 | 100 to 500 | ≥ 5000 | 100 to 500 |  | C=CC(=O)N1CCN(c2ncc3ncnc(Nc4ccc(Oc5ccn6ncnc6c5)c(C)c4F)c3c2F)CC1 [Compound 101, 1-(4-(4-((4-([1,2,4]triazolo[1,5-a]pyridin-7-yloxy)-2-fluoro-3-methylphenyl)amino)-5-fluoropyrido[3,4-d]pyrimidin-6-yl)piperazin-1-yl)prop-2-en-1-one] |
| < 100 | < 50 | ≥ 5000 | 50 to 100 |  | C=CC(=O)N1CCN(c2ncc3ncnc(Nc4ccc(Oc5cc(F)c6c(c5)nnn6C)c(C)c4F)c3n2)CC1 [Compound 33, 1-(4-(8-((2-fluoro-4-((7-fluoro-1-methyl-1H-benzo[d][1,2,3]triazol-5-yl)oxy)-3-methylphenyl)amino)pyrimido [5,4-d]pyrimidin-2-yl)piperazin-1-yl)prop-2-en-1-one] |
| 100 to 500 | < 50 | ≥ 5000 | 100 to 500 |  | C=CC(=O)N1CCN(c2ncc3ncnc(Nc4ccc(Oc5cc(F)c6c(c5)nnn6C)c(C)c4F)c3n2)C[C@H]1C [Compound 49, (R)-1-(4-(8-((2-fluoro-4-((7-fluoro-1-methyl-1H-benzo[d][1,2,3]triazol-5-yl)oxy)-3-methylphenyl)amino)pyrimido[5,4-d]pyrimidin-2-yl)-2-methylpiperazin-1-yl)prop-2-en-1-one] |
|  |  |  |  | 0.04 | C=CC(=O)N1CCN(c2ncc3ncnc(Nc4ccc(Oc5ccc6c(c5)ncn6C)c(C)c4)c3n2)CC1 [Analog of compound 5, reference compound] |
| < 100 | 100 to 500 | ≥ 5000 | 50 to 100 |  | C=CC(=O)N1C2CC1CN(c1ccc3ncnc(Nc4ccc(Oc5ccc6c(c5)nnn6C)c(C)c4)c3n1)C2 [Compound 93, 1-(3-(4-((3-methyl-4-((1-methyl-1H-benzo[d][1,2,3]triazol-5-yl)oxy)phenyl)amino)pyrido[3,2-d]pyrimidin-6-yl)-3,6-diazabicyclo[3.1.1]heptan-6-yl)prop-2-en-1-one] |
| 100 to 500 | 500 to 1000 | ≥ 5000 | 100 to 500 |  | C=CC(=O)N1CCN(c2ncc3ncnc(Nc4ccc(Oc5ccc6c(c5)nnn6C)c(C)c4)c3c2OC)CC1 [Compound 105] |
|  | 100 to 500 | ≥ 5000 |  |  | C=CC(=O)N1CCN(c2ccc3ncnc(Nc4ccc(Oc5ccc6c(c5)nnn6C)c(C)c4)c3n2)[C@@H](C)C1 [Compound 90, (S)-1-(3-methyl-4-(4-((3-methyl-4-((1-methyl-H-benzo[d][1,2,3]triazol-5-yl)oxy)phenyl)amino)pyrido[3,2-d]pyrimidin-6-yl)piperazin-1-yl)prop-2-en-1-one 2,2,2-trifluoroacetate] |
| 500 to 1000 | ≥ 1000 | ≥ 5000 | 500 to 1000 |  | C=CC(=O)N1CCC2(C1)CN(c1ncc3ncnc(Nc4ccc(Oc5ccc6c(c5)nnn6C)c(C)c4)c3n1)C2 [Compound 15, 1-(2-(8-((3-methyl-4-((1-methyl-1H-benzo[d][1,2,3]triazol-5-yl)oxy)phenyl)amino)pyrimido[5,4-d]pyrimidin-2-yl)-2,6-diazaspiro[3.4]octan-6-yl)prop-2-en-1-one] |
|  | 100 to 500 | ≥ 5000 |  |  | C=CC(=O)N1CCN(c2ncc3ncnc(Nc4ccc(Oc5ccc6c(c5)nnn6C)c(C)c4)c3n2)C[C@@H]1CO [Compound 25, (R)-1-(2-(hydroxymethyl)-4-(8-((3-methyl-4-((1-methyl-1H-benzo[d][1,2,3]triazol-5-yl)oxy)phenyl)amino)pyrimido[5,4-d]pyrimidin-2-y1)piperazin-1-yl)prop-2-en-1-one] |
